Measurements as given in patent publication US9822131B2, “Certain chemical entities, compositions and methods” (Intellikine LLC, priority 2008, dated 2017).

Columns and labels:
Balb/c splenic B cells = test: B cell activation and proliferation assay (Alamar Blue); assay type: cell-based; details: Mus musculus, read-out: B cell proliferation EC50 (nM)
Experimental: The assay is performed in a 96 well microtiter plate using Alamar Blue reduction. Balb/c splenic B cells are purified over a Ficoll-Paque™ PLUS gradient followed by magnetic cell separation using a MACS B cell Isolation Kit (Miletenyi). Cells are plated in 90 ul at 50,000 cells/well in B Cell Media (RPMI+10% FBS+Penn/Strep+50 uM bME+5 mM HEPES). A compound disclosed herein is diluted in B Cell Media and added in a 10 ul volume. Plates are incubated for 30 min at 37 C and 5% CO2 (0.2% DMSO final concentration). A 50 ul B cell stimulation cocktail is then added containing either 10 ug/ml LPS or 5 ug/ml F(ab′)2 Donkey anti-mouse IgM plus 2 ng/ml recombinant mouse IL4 in B Cell Media. […] A volume of 15 uL of Alamar Blue reagent is added to each well and plates are incubated for 5 hours at 37 C and 5% CO2. Alamar Blue fluoresce is read at 560Ex/590Em, and IC50 or EC50 values are calculated using GraphPad Prism 5.

basophilic granulocytes = test: Basotest assay; assay type: cell-based; details: heparinized whole blood, dust mite or grass extract allergen
Experimental: The baseotest assay is performed using Orpegen Pharma Basotest reagent kit. Heparinized whole blood is pre-incubated with test compound or solvent at 37 C for 20 min. Blood is then incubated with assay kit stimulation buffer (to prime cells for response) followed by allergen (dust mite extract or grass extract) for 20 min. The degranulation process is stopped by incubating the blood samples on ice. The cells are then labeled with anti-IgE-PE to detect basophilic granulocytes, and anti-gp53-FITC to detect gp53 (a glycoprotein expressed on activated basophils). After staining red blood cells are lysed by addition of Lysing Solution. Cells are washed, and analyzed by flow cytometry.

[1] = system: collagen induced developing arthritis model; test: Rat developing type II collagen induced arthritis assay; assay type: in vivo
Experimental: In order to study the effects of the compounds of the present invention on the autoimmune disease arthritis, a collagen induced developing arthritis model was used. Female Lewis rats were given collagen injections at day 0. Bovine type II collagen was prepared as a 4 mg/ml solution in 0.01N acetic acid. Equal volumes of collagen and Freund's incomplete adjuvant were emulsified by hand mixing until a bead of the emulsified material held its form in water. Each rodent received a 300 μl injection of the mixture at each injection time spread over three subcutaneous sites on the back.
Oral compound administration began on day 0 and continued through day 16 with vehicle (5% NMP, 85% PEG 400, 10% Solutol) or compounds of the present invention in vehicle or control (e.g. methotrexate) at 12 hour intervals daily. Rats were weighed on days 0, 3, 6, 9-17 and caliper measurements of ankles taken on days 9-17. Final body weights were taken, and then the animals were euthanized on day 17. After euthanization, blood was drawn and hind paws and knees were removed. Blood was further processed for pharmacokinetics experiments as well as an anti-type II collagen antibody ELISA assay. Hind paws were weighed and then with the knees preserved in 10% formalin. The paws and knees were subsequently processed for microcopy. Livers, spleen and thymus were also weighed. Sciatic nerves were prepared for histopathology.
Knee and ankle joints were fixed for 1-2 days and decalcified for 4-5 days. Ankle joints were cut in half longitudinally, knees were cut in half along the frontal plane. Joints were then processed, embedded, sectioned and stained with toluidine blue. Scoring of the joints was done according to the following criteria:
Percent inhibition of paw weight and AUC was calculated using the following formula: % Inhibition=A−B/A×100 A=Mean Disease Control−Mean Normal B=Mean Treated−Mean Normal

[2] = system: established type II collagen induced arthritis; test: Rat established type II collagen induced arthritis assay; assay type: in vivo; details: oral
Experimental: In order to examine the dose responsive efficacy of the compounds of the present invention in inhibiting the inflammation, cartilage destruction and bone resorption of 7 day established type II collagen induced arthritis in rats, compounds were administered orally daily or twice daily for 6 days.
Female Lewis rats were anesthetized and given collagen injections prepared and administered as described previously on day 0. On day 6, animals were anesthetized and given a second collagen injection. Caliper measurements of normal (pre-disease) right and left ankle joints were performed on day 9. On days 10-11, arthritis typically occurred and rats were randomized into treatment groups. Randomization was performed after ankle joint swelling was obviously established and there was good evidence of bilateral disease.
After an animal was selected for enrollment in the study, treatment was initiated by the oral route. Animals were given vehicle, control (Enbrel) or compound doses, twice daily or once daily (BID or QD respectively). Dosing was administered on days 1-6 using a volume of 2.5 ml/kg (BID) or 5 ml/kg (QD) for oral solutions. Rats were weighed on days 1-7 following establishment of arthritis and caliper measurements of ankles taken every day. Final body weights were taken on day 7 and animals were euthanized.

[3] = system: adjuvant induced arthritis model; test: Adjuvant induced arthritis assay; assay type: in vivo
Experimental: Isoflurane-anesthetized Lewis rats (200-250 g) were implanted with an intrathecal (IT) catheter. After a 6 d recovery period, all animals except those that appeared to have sensory or motor abnormalities (fewer than 5% of the total number) were used for experiments. For IT administration, 10 μl of drug or saline followed by 10 μl of isotonic saline was injected through the catheter.
Lewis rats were immunized at the base of the tail with 0.1 ml of complete Freund's adjuvant (CFA) on day 0 several days after catheter implantation (n=6/group). Drug (e.g. one or more compounds of the present invention or vehicle) treatment was generally started on day 8 and continued daily until day 20. Clinical signs of arthritis generally begin on day 10, and paw swelling was determined every second day by water displacement plethysmometry.

| SMILES | EC50 (Balb/c splenic B cells) | inhibition of allergen induced activation of basophilic granulocytes (basophilic granulocytes) | ankle histopathology, all categories ([1]; 60 mg/kg, FIG. 4) | serum anti-type II collagen levels ([1]; 10, 20, and 60 mg/kg dosage levels, FIG. 6) | arthritis induced ankle diameter increase over time ([1]; 10, 30, and 60 mg/kg at 12 hour intervals, oral, relative to vehicle or methotrexate control) | knee histopathology ([1]; FIG. 5) | ankle histopathology (inflammation, pannus, cartilage damage, bone resorption) ([1]; oral, 12 hour intervals, FIG. 4) | mean ankle diameter increase over time ([2]; once daily dosage, FIG. 8) | mean ankle diameter increase over time ([2]; twice daily dosage, FIG. 9) | average paw volume increase ([3]; FIG. 10) | toxicity or other adverse reaction as measured by weight loss ([3]; FIG. 11, average weight over time) |
| --- | --- | --- | --- | --- | --- | --- | --- | --- | --- | --- | --- |
| CC(=O)Nc1nc2ccc(-c3nn(Cc4cc5cccc(C)c5c(=O)n4-c4ccccc4C)c4ncnc(N)c34)cc2s1 [Compound 53] | < 100 nM | sub micromolar range |  |  |  |  |  |  |  |  |  |
| CC(=O)Nc1nc2ccc(-c3nn(Cc4cc5cccc(C)c5c(=O)n4-c4ccccc4C)c4ncnc(N)c34)cc2s1 [#53] |  |  | statistically significant reduction in all categories | significant reduction | significant reduction | dose dependent reduction | significant reduction in one or more categories | significant reduction | significant reduction | dose dependent reduction | does not exhibit toxicity or other adverse reaction |
